Experimental data reported in PubChem BioAssay (NCI).
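Five compound concentrations were applied to cells in 96-well plates for 48 hours; endpoints were derived by simple linear interpolation of the resulting dose-response curve. TGI denotes the concentration required for complete inhibition of growth.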

Key:
Assay in all cases: inhibition of tumour cell growth, NCI panel, 48 h
CCRF-CEM leukemia = test system: CCRF-CEM leukemia
EKVX NSCLC = test system: EKVX NSCLC
MDA-N = test system: MDA-N
OVCAR-4 ovarian = test system: OVCAR-4 ovarian
OVCAR-5 ovarian = test system: OVCAR-5 ovarian
RPMI-8226 leukemia = test system: RPMI-8226 leukemia
SF-539 CNS = test system: SF-539 CNS
SK-MEL-28 melanoma = test system: SK-MEL-28 melanoma
SK-MEL-5 melanoma = test system: SK-MEL-5 melanoma
SK-OV-3 ovarian = test system: SK-OV-3 ovarian
SW-620 colon = test system: SW-620 colon
UACC-257 melanoma = test system: UACC-257 melanoma

Structure (SMILES)	TGI (CCRF-CEM leukemia) [µM]	TGI (EKVX NSCLC) [µM]	TGI (MDA-N) [µM]	TGI (OVCAR-4 ovarian) [µM]	TGI (OVCAR-5 ovarian) [µM]	TGI (RPMI-8226 leukemia) [µM]	TGI (SF-539 CNS) [µM]	TGI (SK-MEL-28 melanoma) [µM]	TGI (SK-MEL-5 melanoma) [µM]	TGI (SK-OV-3 ovarian) [µM]	TGI (SW-620 colon) [µM]	TGI (UACC-257 melanoma) [µM]
COC(=O)C12C(=O)CC3CCC1C32C(=O)OC (stereo unspecified)	> 100	> 100	> 100	> 100	> 100	> 100	> 100	> 100	> 100	> 100	> 100	> 100
COc1cc(/C=C2\CC3C4CC=C5C[C@@H](O)CC[C@]5(C)C4CC[C@]3(C)\C2=N\O)cc(OC)c1OC (stereo partly specified)	> 100	> 100	69.6	68.8	61.1	40	34.7	> 100	19.2	> 100	> 100	61.1
CCO/C(O)=c1/s/c(=C2/SC(=S)N(c3ccc(C)cc3)C2=O)n(-c2ccccc2)c1=N	> 100	> 100	> 100	44.3	> 100	> 100	39	> 76.5	> 100	> 76	> 100	> 100
CC1OC1C(=O)P(=O)(O)O (stereo unspecified)	> 100	> 100	> 100	> 100	> 100	> 100	> 100	> 100	> 100	> 100	> 100	> 100
C[N+](C)(N)Cc1nc(-c2ccc(Cl)cc2)no1	> 100	> 100	> 100	> 100	> 100	> 100	> 100	> 100	> 100	> 100	> 100	> 100
Nc1nc(N)c2cc(-c3cc4ccccc4[nH]3)ccc2n1	> 100	95	40.7	63.5	65	32.4	51.7	48.7	30.2	> 100	90.3	35.1
CSC(=Nc1ccccc1)c1c(C)[nH]n(-c2ccccc2)c1=O	> 100	> 100	> 100	> 100	> 100	> 100	> 100	> 100	> 100	> 100	> 100	> 100
COc1ccc(C2c3cc4c(cc3OC(N3CCOCC3)C2C)OCO4)cc1OC (stereo unspecified)	62.5	> 100	4.65	> 100	> 100	> 100	22.1	> 100	> 100	87.7	> 100	> 100
